Measurements from US20180318197A1, “SOYASAPONIN-CONTAINING COMPOSITION FOR SKIN WHITENING” (AMOREPACIFIC CORPORATION, priority 2015, published 2018).

Key:
[1] = target: T1, melanocyte-derived tyrosinase (melan-a cell extract) (Mus musculus, UniProt P11344); test: Cell extract tyrosinase inhibitory activity (DOPA to dopachrome colorimetric reaction); format: biochemical; conditions: pH 6.8, substrate DOPA, absorbance at 475 nm
T1 construct: melan-a cell extract mixture; endogenous in cells; host or cells: melan-a cells (cell extract)
T1 sequence (P11344 19-533): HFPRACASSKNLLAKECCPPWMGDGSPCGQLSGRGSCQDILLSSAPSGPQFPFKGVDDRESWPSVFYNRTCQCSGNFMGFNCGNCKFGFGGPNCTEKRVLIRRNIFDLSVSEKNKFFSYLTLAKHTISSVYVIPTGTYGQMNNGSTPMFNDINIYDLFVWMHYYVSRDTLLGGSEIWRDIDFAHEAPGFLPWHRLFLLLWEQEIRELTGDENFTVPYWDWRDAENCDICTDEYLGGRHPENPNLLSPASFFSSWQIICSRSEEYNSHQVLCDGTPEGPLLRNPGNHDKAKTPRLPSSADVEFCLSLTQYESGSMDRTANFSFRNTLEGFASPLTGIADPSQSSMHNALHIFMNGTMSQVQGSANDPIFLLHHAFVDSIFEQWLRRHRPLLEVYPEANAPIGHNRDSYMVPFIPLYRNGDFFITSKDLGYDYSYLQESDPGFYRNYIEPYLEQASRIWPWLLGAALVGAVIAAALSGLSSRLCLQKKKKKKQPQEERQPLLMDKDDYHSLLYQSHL
Experimental: Tyrosinase is an important enzyme that regulates the first step that is performed to produce melanin in the process of pigmentation, and tyrosinase inhibitory activity is known to be an important efficacy mechanism for whitening. Therefore, in this test example, the ability of soyasaponin to inhibit the activity of tyrosinase was evaluated using a method for inhibiting the activity of cell extract tyrosinase. The method for evaluating the cell extract tyrosinase inhibitory activity is based on a phenomenon that melanocyte-derived tyrosinase causes a colorimeteric reaction by allowing substrate DOPA (3,4-dihydroxyphenylalanine; colorless) to form dopacrome (reddish brown).
Specific experimental methods are as follows. Kojic acid as a positive control and soyasaponin Aa as an evaluation material were prepared by concentrating four times the concentration to be evaluated. Then, the reaction mixture (pH 6.8, 0.1M potassium phosphate buffer, melan-a cell extract mixture) was prepared in a 96 well plate. Since there may be colors depending on the evaluation material, a reaction mixture containing no cell extract liquid was made into a vehicle for background removal. […] Absorbance was measured at 475 nm using an ELISA reader (Synergy2, BioTek, USA) at intervals of 10 minutes until sufficient colorimeteric reaction had occurred.

[2] = system: Murine melanoma (B16) cells; test: Evaluation of the degree of melanin production inhibition in α-MSH-stimulated B16 cells; format: cell-based; conditions: B16 cells with α-MSH; 12.5, 25, 50 or 100 μM soyasaponin Aa; 3 days; absorbance at 490 nm
Experimental: Murine melanoma (B16) cells purchased from the Korean Cell Line Bank were seeded into each well of a 12-well plate (5×10^4 cells/well) in DMEM (Dulbecco's modified eagle's medium) containing FBS (fetal calf serum) or a medium having growth rates equivalent to or higher than those in the DMEM. The cells were cultured at 37° C. with 5% CO2 until they reached about 80% confluency. After cultivation, the medium was removed and samples were replaced in medium diluted with 12.5, 25, 50 or 100 μM of soyasaponin Aa, or 100 ppm (corresponding to 700 μM) of kojic acid, and then cultured at 37° C. with 5% CO2 for 3 days. At this time, α-MSH (melanin stimulation hormone), which is a substance that allows B16 cells to better form melanin during cultivation, was included together in the medium of the other treatment groups except for the untreated control group. […] The concentration range of the samples was determined through toxicity tests. […] The obtained solution was measured for the absorbance at 490 nm using an ELISA reader (Synergy 2, BioTek. USA), and the amount of protein was determined by the Bradford assay, and then the amount of melanin per constant number of cells or the amount of melanin per constant amount of protein was estimated. […]

activity of tyrosinase (FIG. 5) [1]: effectively inhibited
SMILES: CC(=O)O[C@@H]1[C@@H](OC(C)=O)[C@H](O[C@@H]2[C@@H](O)[C@H](O[C@@H]3[C@H](O)C(C)(C)C[C@H]4C5=CC[C@@H]6[C@@]7(C)CC[C@H](O[C@@H]8O[C@H](C(=O)O)[C@@H](O)[C@H](O)[C@H]8O[C@@H]8O[C@H](CO)[C@H](O)[C@H](O)[C@H]8O[C@@H]8O[C@H](CO)[C@@H](O)[C@H](O)[C@H]8O)[C@](C)(CO)[C@@H]7CC[C@@]6(C)[C@]5(C)CC[C@@]34C)OC[C@@H]2O)OC[C@H]1OC(C)=O [soyasaponin Aa]
synthesis of melanin (intracellular FIG. 3 and extracellular FIG. 4) [2]: effectively inhibited
